Test results from paper PMC5974403, “The novel histone de acetylase 6 inhibitor, MPT0G211, ameliorates tau phosphorylation and cognitive deficits in an Alzheimer’s disease model” (Cell Death & Disease, 2018).
Peptide text beside a SMILES is read from it. * marks the point of attachment. Cbz = O=C(OCc1ccccc1)*

Key:
SH-SY5Y cells [1] = experiment: Western blot of acetyl-α-tubulin and acetyl-histone, SH-SY5Y cells; assay type: cell-based, human; conditions: 0.1 to 1 μM, 24 h
Protocol: (§1) Cell viabilities were determined by MTT assay. The results represent the mean ± SEM of three independent experiments; *p < 0.05, **p < 0.01 and ***p < 0.001 compared with controls TEXT PRINTED IN THE PICTURE: (A) no label printed: M.W. 293.32
(§2) Cells (1 × 10^6) were incubated for 10 min at 4 °C in lysis buffer (20 mM HEPES, pH 7.4, 2 mM EGTA, 50 mM β-glycerophosphate, 0.1% Triton X-100, 10% glycerol, 1 mM dithiothreitol, 1 μg/mL leupeptin, 5 μg/mL aprotinin, 1 mM phenylmethylsulfonyl fluoride, and 1 mM sodium orthovanadate), scraped from the plate, incubated on ice for 10 min, and centrifuged at 17,000 × g for 30 min at 4 °C. Protein samples (30 μg) were electrophoresed through sodium dodecyl sulfate-polyacrylamide gels (SDS-PAGE) and transferred onto a nitrocellulose membrane, which was then blocked by incubation for 30 min at room temperature with 5% fat-free milk in PBS. Immunoblotting was performed by overnight incubation at 4 °C with primary antibodies in PBS, followed by incubation for 1 h at room temperature with HRP-conjugated secondary antibodies. Bound antibodies were measured using ECL reagent (T-Pro Biotechnology, New Taipei City, Taiwan), and the membrane was placed on a photographic film. Cell lysates (30 μg) were incubated with antibodies (1 μg each) and protein A/G agarose beads overnight at 4 °C. The precipitated beads were washed three times with 1 mL of ice-cold cell lysis buffer, and bound immune complexes were separated using 8% SDS-PAGE, followed by immunoblotting using the indicated primary antibody.

SH-SY5Y cells [2] = experiment: Flow cytometry of sub-G1 (PI) and annexin V/PI in transfected SH-SY5Y cells; assay type: cell-based, human; conditions: hAPP + hTauP301L transfected SH-SY5Y, 0.1 μM, 24 h
Protocol: The fractionation scheme used to separate different cellular pools of tau, and the western blot analysis of the effects of the compounds on tau pools generated using the fractionation scheme are presented. b, d SH-SY5Y cells were transfected for 24 h with pCAX APP 695 and pRK5-EGFP-Tau P301L, incubated with or without MPT0G211 or ACY-1215 (0.1 μM) for another 24 h, and then the cells were fixed and stained by propidium iodide (b) or annexin V/PI double staining (d) and analyzed by flow cytometry. c, e Percentages of the subG1 phase (c) or annexin V-positive cells (e) in response to drug treatment as explained in (b). Results are presented as the mean ± SEM. *p < 0.05 and **p < 0.01 compared with the control group; ^#p < 0.05 and ^##p < 0.01 compared with the indicated groups TEXT PRINTED IN THE PICTURE: (B) MPT0G211: hAPP + hTauP301L: SubG1 10.91% | (B) ACY-1215: hAPP + hTauP301L: SubG1 15.40% | (D) MPT0G211: hAPP + hTauP301L: 9.56%; hAPP + hTauP301L: 11.26% | (D) ACY-1215: hAPP + hTauP301L: 9.28%; hAPP + hTauP301L: 11.25%
After drug treatment, the cells were collected, washed with cold phosphate-buffered saline (PBS), and fixed with 75% alcohol overnight at −20 °C. After centrifugation, the fixed cells were washed with cold PBS and resuspended in DNA extraction buffer (0.2 M Na2HPO4, 0.1 M citric acid, pH 7.8) for 30 min. The cells were centrifuged and incubated with propidium iodide (PI) (0.1% Triton X-100, 100 μg/mL RNase A, and 80 μg/mL PI in PBS) for 30 min. The cell cycle was analyzed using a FACScan Flow cytometer and Cell Quest software (Becton Dickinson, Mountain View, CA, USA).

Neuro-2a cells [3] = experiment: Western blot of acetyl-α-tubulin and acetyl-histone, Neuro-2a cells; assay type: cell-based, mouse; conditions: 0.1 to 1 μM, 24 h
Protocol: as §1, §2

Neuro-2a cells [4] = experiment: Western blot of tau phosphorylation and kinases in Neuro-2a cells transfected with pCAX APP 695 and pRK5-EGFP-Tau P301L; assay type: cell-based, mouse; conditions: Neuro-2a transfected, MG132 1 μM 30 min before MPT0G211 0.1 μM 24 h
Protocol: (§3) Images represented magnification at ×100. b Cells were transfected with pCAX APP 695 for 24 h, harvested, and cell lysates were subjected to Western blotting. c, d SH-SY5Y and Neuro-2a cells were transfected with pCAX APP 695 and/or pRK5-EGFP-Tau P301L for 24 h. Cell lysates were prepared for western blot analysis of the indicated proteins. e, f Cells were transfected with pCAX APP 695 and pRK5-EGFP-Tau P301L for 24 h and were then incubated with or without MPT0G211 or ACY-1215 (0.1 μM) for another 24 h. Cell lysates were subjected to western blot analysis using the indicated antibodies. Results are presented as the mean ± SEM from three independent experiments. **p < 0.01, ***p < 0.001 compared with the control group; ^#p < 0.05, ^##p < 0.01 compared with the indicated groups
(§4) Cell lysates were prepared for western blot analysis of the indicated proteins. Results are presented as the mean ± SEM. *p < 0.05, **p < 0.01, and ***p < 0.001 compared with the control group; ^#p < 0.05, ^##p < 0.01, ^###p < 0.001 compared with the indicated groups
(§5) Cells were seeded 1 day before transfection. The plasmids pCAX FLAG APP and pRK5-EGFP-Tau P301L (1 μg each) and 1 μL of TurboFect transfection reagent were mixed for 20 min at room temperature, added to the cells, and the suspensions were incubated for 24 h at 37 °C in a humidified atmosphere containing 5% CO2.
as §2

SH-SY5Y cells [5] = experiment: Western blot of tau phosphorylation and kinases in SH-SY5Y cells transfected with pCAX APP 695 and pRK5-EGFP-Tau P301L; assay type: cell-based, human; conditions: SH-SY5Y transfected, MG132 1 μM 30 min before MPT0G211 0.1 μM 24 h
Protocol: as §3, §4, §5, §2

[6] = Fig. 3d picture, quadrant not identified

Compound	acetylation of α-tubulin (SH-SY5Y cells [1])	SubG1 population (SH-SY5Y cells [2]; PI staining, Fig. 3b picture) [%]	annexin V/PI double staining, quadrant percentage (SH-SY5Y cells [2]; [6]) [%]	annexin V/PI double staining, quadrant percentage (first value) (SH-SY5Y cells [2]; [6]) [%]	acetylation of α-tubulin (Neuro-2a cells [3])	effect on MPT0G211-induced inhibition of p-tau at Ser396 (Neuro-2a cells [4])	effect on MPT0G211-induced inhibition of p-tau at Ser396 (SH-SY5Y cells [5])	acetylation of histones (SH-SY5Y cells [1])	acetylation of histones (Neuro-2a cells [3])
O=C(CCCCCCNC(=O)c1cnc(N(c2ccccc2)c2ccccc2)nc1)NO [ACY-1215, reference compound]	less acetylation of α-tubulin	15.40	11.25	9.28	less acetylation of α-tubulin				
CC(C)C[C@@H](C=O)NC(=O)[C@H](CC(C)C)NC(=O)[C@H](CC(C)C)NC(=O)OCc1ccccc1 [MG132, reference compound] (Cbz-Leu-Leu-Leu-aldehyde)						significantly reversed	significantly reversed		
O=C(CCCCCCC(=O)Nc1ccccc1)NO [SAHA]	significantly increased				significantly increased			significantly increased	significantly increased
